Results reported in publication PMC3682882 (BMC Pharmacology & Toxicology, 2013).

Legend:
[1] = treatment for 2 weeks, subjects with T2DM; cited from earlier work
[2] = test system: subjects with T2DM; test: Clinical safety and tolerability (adverse events, laboratory parameters, vital signs); format: in vivo, human; conditions: N = 13
Experimental: (§1) For each treatment period, subjects were admitted to the clinical facility on the evening of Day -1 to undergo check-in procedures including a physical examination, 12-lead ECG, vital signs, clinical laboratory tests (chemistry, hematology and urinalysis), lactic acid measurement, fasting blood glucose measurement, alcohol screen, drugs of abuse screen and pregnancy test (if applicable). On each study day morning, a fasting blood sugar measurement was determined by glucose monitor. On Days 1 and 2, vital signs and a 12-lead ECG were recorded. Samples for clinical laboratory measure were also taken on Days 1 and 3. Subjects returned to the clinic 7–10 days following the last dosing day for a follow-up physical examination and laboratory evaluation. During the between-treatment intervals, subjects were provided with glucose monitors to measure fasting blood glucose concentrations; subjects were instructed as to how to recognize and treat symptoms of hypoglycemia. Adverse events were monitored throughout the entire study (randomization to follow-up visit). Any adverse events reported during the study were assessed by the investigator for intensity (mild, moderate, severe) and relationship to the study drug (causality). Where possible, all adverse events were followed until stabilization, resolution, or until the event was otherwise explained.

[3] = clinical
Source text: Subjects were randomized to receive one of two treatment sequences depicted in Table 1. […] The last dose of drug for each study period was before breakfast on day 3. […] On the evening before each treatment period, subjects were admitted and confined to the clinical site for the duration of the 3-day treatment period. Pharmacokinetic (PK), pharmacodynamic (PD; urine glucose and FPG), and safety (adverse events, vital signs, ECG, clinical laboratory parameters including lactic acid) assessments were performed at check-in and throughout the treatment periods. For each treatment period, the PK sampling occurred on Day 3.
All sample times are relative to the time of the administration of the first dose of study medication on Day 3 of each period. […] Blood samples for remogliflozin etabonate, remogliflozin and GSK279782 were collected into tubes containing potassium-oxalate/ sodium fluoride, placed on ice and centrifuged at approximately 3000 rpm for 10 minutes at approximately 4°C. The harvested plasma was frozen at -70°C until analysis for remogliflozin etabonate, remogliflozin and GSK279782 concentrations.
The concentrations of remogliflozin etabonate, remogliflozin, and GSK279782 in deproteinized plasma samples and standards were determined by high-performance liquid chromatography (HPLC) with tandem mass spectrometry (MS/MS) using isotopically labelled internal standards ([^2H7]- remogliflozin etabonate, [^2H7]- remogliflozin and [^2H7]-GSK279782 as previously described.
Plasma proteins from a […] plasma aliquot were precipitated using acetonitrile containing the internal standard (200 ng mL-1). Samples were vortex mixed then centrifuged. The resulting supernatant was transferred and mixed with […] of HFBA buffer (water containing 10 mM ammonium acetate and 0.26% (v/v) of heptofluorobutyric acid) prior to injection. HPLC was performed on a Shimadzu LC-10A HPLC system. Chromatography was performed on a MAC-MOD Ace 3 C18, 4.6 × 50 mm column at a flow rate of 1.0 mL min-1. An isocratic mobile phase elution with 82:18 (v/v) HFBA buffer : Acetonitrile was used. Samples were analysed in positive ion mode by Turbo Ionspray LC/MS/MS with a PE/Sciex API 3000. The calibration range was 20 to 5000 ng mL-1. Performance of the method was assessed during a 3 day validation study using quality control samples at 5 concentrations 20, 80, 500, 4000 and 5000 ng mL-1.
Actual elapsed time from dosing was used to estimate all individual plasma PK parameters.
• Cmax and tmax were the actual observed values.
• AUC(0–12) or AUC(0–last) was calculated by a combination of linear and logarithmic trapezoidal methods. The linear trapezoidal method was used for all incremental trapezoids arising from increasing concentrations and the logarithmic trapezoidal method was used for those arising from decreasing concentrations.

[4] = Statistical comparison of PK parameters with and without co-administered drug (drug-drug interaction); format: in vivo, human
Experimental: Safety and PD parameters were summarized using descriptive statistics. […] The PROC MIXED from SAS (Version 8.2, Cary, NC, USA) was used to fit the model. The estimates and the 90% CI were exponentiated in order to obtain the ratio of geometric means and its CI. The assumptions underlying the model were assessed by visual inspection of residual plots. […] Tmax was analysed non-parametrically using Hodges–Lehmann method.

[5] = test system: diabetic rodent models; conditions: several diabetic rodent models; cited from earlier work
[6] = test system: rats; conditions: cited from earlier work
[7] = test system: subjects with T2DM; test: Fasting plasma glucose change from baseline; format: in vivo, human; conditions: baseline pre-dose Day 1 to Day 2 and Day 3
Experimental: FPG concentrations were collected on Day -1, 1, 2 and 3. Changes in plasma glucose from baseline (Day 1) to Day 2 and 3 were calculated.

[8] = test system: subjects with T2DM; test: Fluid intake, urine volume and fluid balance; format: in vivo, human; conditions: Day 1, 0–24-hour interval, intake minus output
Source text: Total fluid intake, urine volume, and fluid balance (intake minus output) were summarized over the 0–24-hour interval of Day 1 and Day 2 and the 0–12-hour interval of Day 3 of each treatment period.

[9] = test system: subjects with T2DM; test: Percent of filtered glucose excreted in the urine; format: in vivo, human; conditions: for percent filtered glucose excreted in urine, max / percent filtered glucose excreted in urine, mean (SD) / percent filtered glucose excreted in urine, median / percent filtered glucose excreted in urine, min: Day 2, N = 13; for percent of filtered glucose excreted in the urine, mean: combined 24 hour collection, Day 2
Experimental: Creatinine clearance (CLcr) was calculated on Day 2 and used to determine the percent of filtered glucose load excreted in urine. By using the urine collections on Day 2, CLcr was calculated as follows:
Clcr=totalamountofurinecreatinine0-xxhinterval/nearestassociatedserumcreatinine=urinecreatininemg/xxhours/serumcreatininemg/dL*100mL/dL/xx*60minutes/xxhours,
where urine creatinine (mg/xx hours) is the amount of […] excreted in a xx-hour period. Urine creatinine was calculated by multiplying the urine creatinine concentration by the urine volume (mL) for a 0-xxh time interval as follows:
urinecreatininemg/xxhours=urinecreatinineconcentrationmg/dL*intervalvolumemL/100mL/dL.
Percent of filtered glucose excreted in the urine was estimated for all collection intervals on Day 2 as follows:
GlucoseAmountExcreted/Clcr*PG*TimeIntervalorUrineglucosemg/dL*SerumCreatininemg/dL/urinecreatininemg/dL*PGmg/dL
where glucose amount excreted is the amount of glucose excreted during the xx-hour period, and CLcr is calculated for the xx-hour time interval. PG is the plasma glucose concentration reported closest to the midpoint of the time interval. Because only pre-dose PG was collected in this study, the pre-dose PG on Day 2 was used. Time interval is the number of minutes of urine collection for that interval.

[10] = test system: subjects with T2DM; test: 24-hour urine glucose excretion in subjects with T2DM; format: in vivo, human
Experimental: Urine was collected on Days 1 to 3 of each treatment period, and urine glucose concentrations were analyzed for the following intervals: 0–4 hours, 4–8 hours, 8–12 hours and 12–24 hours. The quantity of glucose and creatinine excreted in urine was determined by multiplying the urine glucose or creatinine concentration for each time interval by the volume of urine for the corresponding collection interval. The total 24-hour quantity of glucose excreted in urine on Day 2 was calculated by adding the amounts collected during each interval. Urine glucose and creatinine amounts were summarized for each collected interval and for the total 24-hour collection period.

[11] = test system: panel of metabolic enzymes and transporters, including organic cation transporters; design: method as in earlier work; conditions: panel including organic cation transporters involved with metformin renal secretion; cited from earlier work
[12] = test system: mice; conditions: cited from earlier work
[13] = test system: healthy subjects and subjects with T2DM; design: method as in PMID 21733056, PMID 23668634; conditions: single oral doses up to 1000 mg in healthy subjects, up to 1000 mg BID for 2 weeks in T2DM; cited from earlier work
[14] = test system: subjects with T2DM; test: Lactic acid concentration by treatment; format: in vivo, human; conditions: during the three day treatment period
Experimental: as §1

[15] = cited from earlier work
[16] = human, in vivo, 500 mg, AUC(0–12)

For `NS(=O)(=O)c1cc2c(cc1Cl)NCNS2(=O)=O` [hydrochlorothiazide], the “effect on the clearance of metformin” value [1] is given as “no significant effect”.

In the case of `CCOC(=O)OC[C@H]1O[C@@H](Oc2nn(C(C)C)c(C)c2Cc2ccc(OC(C)C)cc2)[C@H](O)[C@@H](O)[C@@H]1O` [Remogliflozin etabonate], the Abdominal pain upper [2] is reported as 1 (8%) n (%), the “Any Event” value [2] is reported as 2 (15%) n (%) and the Back pain [2] is reported as 0 n (%). The Dizziness [2] was 0 n (%), the Dyspepsia [2] was 0 n (%) and the Fatigue [2] was 0 n (%). For the same molecule, the Headache [2] was 0 n (%), the Hypoglycemia [2] was 0 n (%) and the Muscle spasms [2] was 1 (8%) n (%). For the same molecule, the Nasopharyngitis [2] was 0 n (%), the Neck pain [2] was 0 n (%) and the Osteoarthritis [2] was 0 n (%). The Rash [2] was 0 n (%), the Toothache [2] was 0 n (%) and the Wound [2] was 0 n (%). It also gave a Tmax ([3]; human, in vivo) of 3 h, an AUC(0-t) ([3]; human, in vivo, AUC(0–last)) of 98.9 ng·h/mL and a Cmax ([3]; human, in vivo) of 79.5 ng/mL. The “AUC(0-last) point estimate (GLSM Ratio)” value ([4]; MET + RE / RE) was 1.00, the “Cmax point estimate (GLSM Ratio)” value ([4]; MET + RE / RE) was 0.85 and the “decrease in Cmax” value ([4]; MET + RE compared to remogliflozin etabonate alone) was 15%. For the same molecule, the “effect of metformin on AUC” value ([4]; MET + RE vs remogliflozin etabonate alone) was “no effects”, the antidiabetic efficacy [5] was “exhibit antidiabetic efficacy” and the urinary glucose excretion [6] was “increase urinary glucose excretion in a dose-dependent manner”. For the same molecule, the “changes in fasting plasma glucose concentrations from baseline” value [7] was “small decreases”, the “fluid balance (median)” value [8] was -1145 mL and the “percent filtered glucose excreted in urine, max” value [9] was 61.3%. The “percent filtered glucose excreted in urine, mean (SD)” value [9] was 51.3 (7.02) percent, the “percent filtered glucose excreted in urine, median” value [9] was 51.8% and the “percent filtered glucose excreted in urine, min” value [9] was 38.4%. For the same molecule, the “percent of filtered glucose excreted in the urine, mean” value [9] was “approximately 50%”, the “24-hour urine glucose, max” value ([10]; Day 2, N = 13) was 796 mmol and the “24-hour urine glucose, median” value ([10]; Day 2, N = 13) was 497 mmol. The “24-hour urine glucose, min” value ([10]; Day 2, N = 13) was 384 mmol, the “inhibition of metabolic enzymes and transporters” value [11] was “lack of inhibition” and the urinary glucose excretion [12] was “increase urinary glucose excretion in a dose-dependent manner”. For the same molecule, the safety and tolerability [13] was “safe and well tolerated” and the mean lactate concentrations [14] was “unchanged or decreased slightly”.

For `CN(C)C(=N)N=C(N)N` [Metformin, reference compound], the Abdominal pain upper [2] was 0 n (%), the “Any Event” value [2] was 5 (38%) n (%) and the Back pain [2] was 2 (15%) n (%). For the same molecule, the Dizziness [2] was 1 (8%) n (%), the Dyspepsia [2] was 0 n (%) and the Fatigue [2] was 1 (8%) n (%). For the same molecule, the Headache [2] was 2 (15%) n (%), the Hypoglycemia [2] was 1 (8%) n (%) and the Muscle spasms [2] was 1 (8%) n (%). The Nasopharyngitis [2] was 0 n (%), the Neck pain [2] was 1 (8%) n (%) and the Osteoarthritis [2] was 0 n (%). For the same molecule, the Rash [2] was 0 n (%), the Toothache [2] was 1 (8%) n (%) and the Wound [2] was 0 n (%). For the same molecule, the AUC(0-t) [3, 16] was 7140 ng·h/mL, the Cmax ([3]; human, in vivo) was 1020 ng/mL and the Tmax ([3]; plasma, Day 3, MET BID, median (range)) was 4.0 (1.0 - 6.0) h. For the same molecule, the “effect of remogliflozin etabonate on PK parameters” value ([4]; metformin PK with MET + RE vs MET) was “no effect”, the “changes in fasting plasma glucose concentrations from baseline” value [7] was “remained relatively stable” and the “fluid balance (median)” value [8] was -775 mL. For the same molecule, the “percent filtered glucose excreted in urine, max” value [9] was 4.71%, the “percent filtered glucose excreted in urine, mean (SD)” value [9] was 1.41 (1.52) percent and the “percent filtered glucose excreted in urine, median” value [9] was 0.95%. The “percent filtered glucose excreted in urine, min” value [9] was 0.10%, the “percent of filtered glucose excreted in the urine, mean” value [9] was 1.4% and the “effect on urine glucose output” value ([10]; Day 2) was “relatively no effect”. The “24-hour urine glucose, max” value ([10]; Day 2, N = 13) was 43.9 mmol, the “24-hour urine glucose, mean (SD)” value ([10]; Day 2, N = 13) was 13.6 (13.4) mmol and the “24-hour urine glucose, median” value ([10]; Day 2, N = 13) was 10.9 mmol. The “24-hour urine glucose, min” value ([10]; Day 2, N = 13) was 1.1 mmol, the renal excretion [15] was 3 times the glomerular filtration rate and the mean lactate concentrations [14] was “increase or increasing trend”.

For `Cc1c(Cc2ccc(OC(C)C)cc2)c(O[C@@H]2O[C@H](CO)[C@@H](O)[C@H](O)[C@H]2O)nn1C(C)C` [Remogliflozin], the Tmax ([3]; human, in vivo) was 3 h, the AUC(0-t) [3, 16] was 6810 ng·h/mL and the Cmax ([3]; human, in vivo) was 2690 ng/mL. The “inhibition of metabolic enzymes and transporters” value [11] was “lack of inhibition”.
